Test results taken from patent publication US10500202B2, “Pharmaceutical formulation containing tadalafil” (Druggability Technologies IP Holdco Limited, priority 2016, dated 2019).
Where two headings read alike, the source gives them in different places.

How the values were obtained:
[1] = cited from earlier work
PAMPA permeability = type: in vitro ADME
Experimental: PAMPA permeability of the selected compositions was measured in order to select the pharmaceutical Tadalafil compositions having the best in-vitro performance (FIG. 2). PAMPA permeability measurements were performed as described by M. Kansi et al. (Journal of medicinal chemistry, 41, (1998) pp 1007) with modifications based on S. Bendels et al (Pharmaceutical research, 23 (2006) pp 2525). Permeability was measured in a 96-well plate assay across an artificial membrane composed of dodecane with 20% soy lecithin supported by a PVDF membrane (Millipore, USA). The receiver compartment was phosphate buffered saline (pH 7.0) supplemented with 1% sodium dodecyl sulfate. The assay was performed at room temperature; incubation time was 4 hours in ultrapurified water or 10-20 and 30 minutes in simulates saliva, respectively. The concentration in the receiver compartment was determined by UV-VIS spectrophotometry (Thermo Scientific Genesys S10).
PAMPA permeabilities of Tadalafil pharmaceutical compositions in water (H2O), FaSSIF (Fa) and FeSSIF (Fe) media were above 7.6×10^−6 cm/s, 7.2×10^−6 cm/s and 4.3×10^−6 cm/s, respectively, while it was 0.6×10^−6 cm/s, 0.6×10^−6 cm/s and 0.8*10^−6 cm/s in water, FaSSIF and FeSSIF media for the unformulated, crystalline reference. PAMPA permeability of Cialis® in water, FaSSIF and FeSSIF media was above 0.9×10^−6 cm/s, 0.8×10^−6 cm/s and 1.1×10^−6 cm/s, respectively.
PAMPA permeability of the solid Tadalafil pharmaceutical compositions was used to monitor the physical stability of the pharmaceutical formulation. PAMPA permeability was measured after storage at different conditions.

[2] = cited from earlier work; remark: listed apart in the source
[3] = 10 mg/kg, beagle dog, cited from earlier work

CN1CC(=O)N2[C@H](c3ccc4c(c3)OCO4)c3[nH]c4ccccc4c3C[C@@H]2C1=O [Tadalafil]
Solubility ([1]; ethanol): very slightly soluble
Solubility ([1]; water): practically insoluble
Papp (PAMPA permeability; pH 7, FaSSIF): 0.6 ×10⁻⁶ cm/s
Papp (PAMPA permeability; pH 7, FeSSIF): 0.8 ×10⁻⁶ cm/s
Papp at 4 h (PAMPA permeability; pH 7, Water): 0.6 ×10⁻⁶ cm/s
Exposure (AUC) versus dose ([2]; dose range of 2.5 to 20 mg, healthy subjects): increases proportionally with dose
Fraction of administered dose in semen ([2]; healthy subjects): Less than 0.0005%
Mean oral clearance ([2]; healthy subjects): 2.5 L/h
Mean terminal half-life ([2]; healthy subjects): 17.5 h
Steady-state exposure relative to a single dose ([2]; once-daily dosing): approximately 1.6 fold
Time to steady-state plasma concentrations ([2]; once-daily dosing): ≤ 5 days
Mean apparent volume of distribution ([2]; oral administration): approximately 63 L
Effect of food on rate and extent of absorption ([2]; oral): not influenced by food
Excretion in the feces ([2]; predominantly as metabolites): approximately 61 % of the dose
Excretion in the urine ([2]; predominantly as metabolites): approximately 36 % of the dose
tmax values ([2]; range): 0.5 to 6 h
Fraction in plasma bound to proteins ([2]; therapeutic concentrations): 94%
Estimated F ([3]; iv, published (reference)): 100%
AUC24 ([3]; iv, published): 22894 ng·h/mL
Cmax ([3]; iv, published): 3663 ng/mL
AUC24 ([3]; oral, published): 4109 ± 3141 ng·h/mL
Cmax ([3]; oral, published): 526 ± 281 ng/mL
Estimated F ([3]; oral, published): 18%
tmax ([3]; oral, published): 3 h

Cc1cccc(O)c1O [Methylcatechol]
Methylcatechol concentrations relative to glucuronide concentrations ([2]; circulating metabolites of Tadalafil): less than 10%
